Source: patent US11426473B2, “Nitrogen-containing compound or salt thereof, or metal complex thereof” (FUJIFILM Corporation, priority 2013, dated 2022)
pIC50: −log10 of the molar value. Where a name gives a salt, the structure may show the parent alone. Read-outs that look alike come from different tables or passages of the source.

What was measured:
[1] = target: T1, Integrin αvβ3 (Homo sapiens, UniProt P05106+P06756); assay: Integrin αvβ3 binding affinity test
T1 construct: purchased Chemicon International, Inc
T1 sequence (P06756 31-889 limits assumed): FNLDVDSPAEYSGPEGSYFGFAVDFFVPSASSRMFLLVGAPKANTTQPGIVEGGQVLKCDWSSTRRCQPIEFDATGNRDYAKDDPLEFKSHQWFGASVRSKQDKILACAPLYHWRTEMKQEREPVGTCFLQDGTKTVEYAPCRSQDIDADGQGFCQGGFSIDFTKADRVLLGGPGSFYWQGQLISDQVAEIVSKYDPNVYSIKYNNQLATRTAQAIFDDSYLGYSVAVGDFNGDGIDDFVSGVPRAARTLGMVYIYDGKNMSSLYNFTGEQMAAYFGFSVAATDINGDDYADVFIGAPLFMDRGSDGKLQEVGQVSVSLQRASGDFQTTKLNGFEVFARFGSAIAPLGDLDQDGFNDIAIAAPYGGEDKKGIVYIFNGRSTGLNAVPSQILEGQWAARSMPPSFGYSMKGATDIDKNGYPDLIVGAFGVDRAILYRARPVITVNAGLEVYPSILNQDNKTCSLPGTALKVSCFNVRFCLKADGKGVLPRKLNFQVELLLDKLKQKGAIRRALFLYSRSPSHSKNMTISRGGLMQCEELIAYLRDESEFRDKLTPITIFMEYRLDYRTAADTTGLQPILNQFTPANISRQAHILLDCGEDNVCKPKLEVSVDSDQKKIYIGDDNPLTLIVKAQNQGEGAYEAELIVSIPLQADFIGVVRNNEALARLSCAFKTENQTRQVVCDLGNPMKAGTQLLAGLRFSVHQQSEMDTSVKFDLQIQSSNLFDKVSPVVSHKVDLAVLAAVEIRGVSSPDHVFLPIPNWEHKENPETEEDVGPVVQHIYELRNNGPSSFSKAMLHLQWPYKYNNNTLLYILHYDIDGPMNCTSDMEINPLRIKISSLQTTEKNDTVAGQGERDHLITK
T1 sequence (P06756 891-1048 partner limits assumed): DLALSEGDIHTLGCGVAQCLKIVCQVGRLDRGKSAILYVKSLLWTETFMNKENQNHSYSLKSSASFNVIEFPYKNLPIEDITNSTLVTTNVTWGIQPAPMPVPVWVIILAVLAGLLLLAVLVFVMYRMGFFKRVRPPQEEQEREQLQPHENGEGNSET
T1 sequence (P05106 27-788): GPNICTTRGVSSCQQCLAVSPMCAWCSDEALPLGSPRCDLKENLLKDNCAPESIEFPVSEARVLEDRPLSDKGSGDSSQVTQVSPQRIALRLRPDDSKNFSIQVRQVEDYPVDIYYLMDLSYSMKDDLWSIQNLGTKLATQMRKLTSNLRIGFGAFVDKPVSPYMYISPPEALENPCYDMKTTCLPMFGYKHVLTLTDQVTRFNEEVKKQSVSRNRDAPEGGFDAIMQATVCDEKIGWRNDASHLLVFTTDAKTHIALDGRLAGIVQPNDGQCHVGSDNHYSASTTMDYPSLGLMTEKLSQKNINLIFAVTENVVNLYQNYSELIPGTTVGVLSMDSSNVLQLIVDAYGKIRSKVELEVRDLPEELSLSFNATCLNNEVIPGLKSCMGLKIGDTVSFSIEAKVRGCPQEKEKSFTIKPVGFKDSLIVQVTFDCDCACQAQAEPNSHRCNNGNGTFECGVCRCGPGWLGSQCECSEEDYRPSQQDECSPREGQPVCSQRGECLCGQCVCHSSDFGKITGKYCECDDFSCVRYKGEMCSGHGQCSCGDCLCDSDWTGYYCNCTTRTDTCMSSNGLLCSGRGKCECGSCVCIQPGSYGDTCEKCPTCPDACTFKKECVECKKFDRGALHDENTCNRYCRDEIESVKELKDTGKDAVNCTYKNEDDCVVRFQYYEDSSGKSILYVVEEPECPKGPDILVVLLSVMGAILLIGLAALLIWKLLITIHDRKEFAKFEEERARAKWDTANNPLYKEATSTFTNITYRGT
Description: (§1) […] αvβ3 (Chemicon International, Inc.) was immobilized on each well of a 96-well plate (Corning Inc.). Each well was blocked with a 1% Block Ace (DS Pharma Biomedical Co., Ltd) solution and then washed with T-PBS (PBS containing 0.05% Tween 20). Evaluation compound solutions having a 2-fold concentration (10 concentrations of 3.16-fold dilutions from 0.3 μmol/L, buffer (20 mM Tris-HCl pH 7.5, 150 mM NaCl, 1 mM CaCl2, 1 mM MgCl2, and 1 mM MnCl2)) and a 4 μg/mL biotinylated vitronectin solution (vitronectin (Upstate Biotechnology Inc.) was labeled with EZ-Link Sulfo-NHS-Biotinylation Kit (Pierce/Thermo Fisher Scientific Inc.) and then concentration-adjusted) were each added at 50 μL/well, and the plate was shaken at room temperature for 2 hours. After washing with T-PBS, a 0.2 μg/mL avidin peroxidase (Pierce/Thermo Fisher Scientific Inc.) solution was added thereto, and the plate was shaken at room temperature for 1 hour. After washing with T-PBS, color was developed by an o-phenylenediamine (Sigma-Aldrich Inc.) solution (the reaction was terminated by the addition of 4 mol/L sulfuric acid), and the absorbance was measured (490 nm, Reference: 595 nm). The IC50 value was calculated using XLfit 3.0 (ID Business Solutions Ltd.). RGDfV (Bachem AG) was measured in duplicate as a QC sample for each plate.

[2] = target: T2, Integrin αvβ5 (Homo sapiens, UniProt P06756+P18084); assay: Integrin αvβ5 binding affinity test
T2 construct: purchased Chemicon International, Inc
T2 sequence (P06756 31-889 limits assumed): as the sequence (P06756 31-889 limits assumed) above
T2 sequence (P06756 891-1048 partner limits assumed): as the sequence (P06756 891-1048 partner limits assumed) above
T2 sequence (P18084 24-799): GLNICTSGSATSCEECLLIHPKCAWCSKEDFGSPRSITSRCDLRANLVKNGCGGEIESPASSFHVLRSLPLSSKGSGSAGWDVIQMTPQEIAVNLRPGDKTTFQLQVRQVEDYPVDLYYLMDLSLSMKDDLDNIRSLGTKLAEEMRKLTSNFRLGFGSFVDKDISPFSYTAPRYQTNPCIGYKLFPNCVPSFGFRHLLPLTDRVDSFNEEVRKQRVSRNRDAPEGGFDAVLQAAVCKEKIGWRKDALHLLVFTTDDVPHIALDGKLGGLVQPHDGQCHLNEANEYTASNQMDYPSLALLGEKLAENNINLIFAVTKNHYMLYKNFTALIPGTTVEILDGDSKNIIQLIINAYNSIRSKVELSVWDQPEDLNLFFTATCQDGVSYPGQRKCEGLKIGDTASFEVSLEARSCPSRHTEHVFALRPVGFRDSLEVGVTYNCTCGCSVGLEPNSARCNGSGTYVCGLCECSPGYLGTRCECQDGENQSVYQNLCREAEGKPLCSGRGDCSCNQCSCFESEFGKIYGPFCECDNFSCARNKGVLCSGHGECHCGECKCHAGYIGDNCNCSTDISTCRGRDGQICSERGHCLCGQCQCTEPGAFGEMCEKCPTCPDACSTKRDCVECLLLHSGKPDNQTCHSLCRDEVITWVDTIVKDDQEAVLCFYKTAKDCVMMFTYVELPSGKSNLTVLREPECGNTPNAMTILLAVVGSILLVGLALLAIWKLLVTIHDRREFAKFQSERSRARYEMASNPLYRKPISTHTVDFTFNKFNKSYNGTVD
Description: as §1, with “αvβ5” for “αvβ3”, “PBST (10 mM Na2HPO4 pH 7.5, 150 mM NaCl, and 0.01%” for “T-PBS (PBS containing 0.05%”, “PBST,” for “T-PBS,”

[3] = inhibition of biotinylated vitronectin binding to immobilized αvβ3, read-out: IC50 value αv β3
[4] = inhibition of biotinylated vitronectin binding to immobilized αvβ5, read-out: IC50 value αvβ5

Structure (SMILES)	pIC50 [1, 3]	pIC50 [2, 4]	pIC50 [1]	pIC50 [2]
Cc1cc(OCCCC(=O)NCCNC(=O)[C@H](CS(=O)(=O)O)NC(=O)[C@H](CS(=O)(=O)O)NC(=O)CN2CCN(CC(=O)O)CCN(CC(=O)O)CCN(CC(=O)O)CC2)cc(C)c1S(=O)(=O)N[C@@H](CNC(=O)CCCCc1ccc2c(n1)NCCC2)C(=O)O [Compound O10, 2,2′,2′-(10-((4R,7R)-16-(4-(N—((S)-1-carboxy-2-(5-(5,6,7,8-tetrahydro-1,8-naphthyridin-2-yl)pentanamido)ethyl)sulfamoyl)-3,5-dimethylphenoxy)-2,5,8,13-tetraoxo-4,7-bis(sulfomethyl)-3,6,9,12-tetraazahexadecyl)-1,4,7,10-tetraazacyclododecane-1,4,7-triyl)triacetic acid]	> 9.00	> 9.00		
Cc1cc(OCCCC(=O)NCCNC(=O)[C@H](CS(=O)(=O)O)NC(=O)CN2CCN(CC(=O)O)CCN(CC(=O)O)CCN(CC(=O)O)CC2)cc(C)c1S(=O)(=O)N[C@@H](CNC(=O)CCCCc1ccc2c(n1)NCCC2)C(=O)O [Compound P2, 2,2′,2′-(10-(2-(((R)-1-((2-(4-(4-(N—((S)-1-carboxy-2-(5-(5,6,7,8-tetrahydro-1,8-naphthyridin-2-yl)pentanamido)ethyl)sulfamoyl)-3,5-dimethylphenoxy)butanamido)ethyl)amino)-1-oxo-3-sulfopropan-2-yl)amino)-2-oxoethyl)-1,4,7,10-tetraazacyclododecane-1,4,7-triyl)triacetic acid]	> 9.00	> 9.00		
Cc1cc(OCCCC(=O)NCCNC(=O)[C@H](CS(=O)(=O)O)NC(=O)[C@H](CS(=O)(=O)O)NC(=S)Nc2ccc(C[C@@H](CN(CC(=O)O)CC(C)N(CC(=O)O)CC(=O)O)N(CC(=O)O)CC(=O)O)cc2)cc(C)c1S(=O)(=O)N[C@@H](CNC(=O)c1ccc(CCc2ccc3c(n2)NCCC3)cc1)C(=O)O (stereo partly drawn) [Compound R3, 2,2′-((1-(((S)-2-(bis(carboxymethyl)amino)-3-(4-(3-((R)-1-(((R)-1-((2-(4-(4-(N—((S)-1-carboxy-2-(4-(2-(5,6,7,8-tetrahydro-1,8-naphthyridin-2-yl)ethyl)benzamido)ethyl)sulfamoyl)-3,5-dimethylphenoxy)butanamido)ethyl)amino)-1-oxo-3-sulfopropan-2-yl)amino)-1-oxo-3-sulfopropan-2-yl)thioureido)phenyl)propyl) (carboxymethyl)amino)propan-2-yl)azanediyl)diacetic acid]	> 9.00	> 9.00		
Cc1cc(OCCCC(=O)NCCNC(=O)CN2CCN(CC(=O)O)CCN(CC(=O)O)CCN(CC(=O)O)CC2)cc(C)c1S(=O)(=O)N[C@@H](CNC(=O)c1ccc(CCc2ccc3c(n2)NCCC3)cc1)C(=O)O [Compound S2, (S)-2,2′,2″-(10-(2-((2-(4-(4-(N-(1-carboxy-2-(4-(2-(5,6,7,8-tetrahydro-1,8-naphthyridin-2-yl)ethyl)benzamido)ethyl)sulfamoyl)-3,5-dimethylphenoxy)butanamido)ethyl)amino)-2-oxoethyl)-1,4,7,10-tetraazacyclododecane-1,4,7-triyl)triacetic acid]	> 9.00	> 9.00		
Cc1cc(OCCCC(=O)NCCNC(=O)[C@H](CS(=O)(=O)O)NC(=O)CN2CCN(CC(=O)O)CCN(CC(=O)O)CCN(CC(=O)O)CC2)cc(C)c1S(=O)(=O)N[C@@H](CNC(=O)CCCCCc1ccc2c(n1)NCCC2)C(=O)O [Compound W10, 2,2′,2″-(10-(2-(((R)-1-((2-(4-(4-(N—((S)-1-carboxy-2-(6-(5,6,7,8-tetrahydro-1,8-naphthyridin-2-yl)hexanamido)ethyl)sulfamoyl)-3,5-dimethylphenoxy)butanamido)ethyl)amino)-1-oxo-3-sulfopropan-2-yl)amino)-2-oxoethyl)-1,4,7,10-tetraazacyclododecane-1,4,7-triyl)triacetic acid]	> 9.00	8.00 to 9.00		
Cc1cc(OCCCC(=O)NCCNC(=O)[C@H](CS(=O)(=O)O)NC(=O)[C@H](CS(=O)(=O)O)NC(=O)CN2CCN(CC(=O)O)CCN(CC(=O)O)CCN(CC(=O)O)CC2)cc(C)c1S(=O)(=O)N[C@@H](CNC(=O)c1ccc(CCc2ccc3c(n2)NCCC3)s1)C(=O)O [Compound X9, 2,2′,2″-(10-((4R,7R)-16-(4-(N—((S)-1-carboxy-2-(5-(2-(5,6,7,8-tetrahydro-1,8-naphthyridin-2-yl)ethyl)thiophene-2-carboxamido)ethyl)sulfamoyl)-3,5-dimethylphenoxy)-2,5,8,13-tetraoxo-4,7-bis(sulfomethyl)-3,6,9,12-tetraazahexadecyl)-1,4,7,10-tetraazacyclododecane-1,4,7-triyl)triacetic acid]	> 9.00	8.00 to 9.00		
O=C(O)CN1CCN(CC(=O)O)CCN(CC(=O)N[C@@H](CS(=O)(=O)O)C(=O)N[C@@H](CS(=O)(=O)O)C(=O)NCCNC(=O)CCCOc2ccc(S(=O)(=O)N[C@@H](CNC(=O)c3ccc(CCc4ccc5c(n4)NCCC5)cc3)C(=O)O)cc2)CCN(CC(=O)O)CC1 [Compound Y13, 2,2′,2″-(10-((4R,7R)-16-(4-(N—((S)-1-carboxy-2-(4-(2-(5,6,7,8-tetrahydro-1,8-naphthyridin-2-yl)ethyl)benzamido)ethyl)sulfamoyl)phenoxy)-2,5,8,13-tetraoxo-4,7-bis(sulfomethyl)-3,6,9,12-tetraazahexadecyl)-1,4,7,10-tetraazacyclododecane-1,4,7-triyl)triacetic acid hexasodium salt]	> 9.00	> 9.00		
Cc1cc(OCCCC(=O)NCCNC(=O)C(CS(=O)(=O)O)NC(=O)CN2CCN3CCN4CCN(CC2)CC(=O)[O][Y]([O]C(=O)C3)[O]C(=O)C4)cc(C)c1S(=O)(=O)NC(CNC(=O)CCCCc1ccc2c(n1)NCCC2)C(=O)O (stereo not shown) [DD]			> 9.00	> 9.00
